According to patent US20220313626A1, “SMALL MOLECULE INHIBITORS FOR TREATING CANCER IN A SUBJECT HAVING TUMORS WITH HIGH INTERSTITIAL PRESSURE” (GUANGZHOU MAXINOVEL PHARMACEUTICALS CO., LTD., priority 2019, published 2022):

Tested on: MC-38-hPD-L1 tumor cells
Test: Anti-tumor efficacy in MC-38-hPD-L1 models
Format: in vivo
Details: for TGI / Tumor Volume: MC-38-hPD-L1, C57BL/6-hPD-1 mice, BID, 19 days
Description: Materials required for the experiment: Antibody: PD-L1 antibody Durvalumab, Product specifications: 120 mg/2.4 mL(50 mg/mL), Lot No.: 041E17C, Manufacture: AstraZeneca, purchased from Hongkong Mingchuang Medical Limited, storage at 2-8° C. Experimental animal: 120 C57BL/6-hPD-1 mice, female, 6˜8 weeks old, 18˜21 g, purchased from Jiangsu Gem Pharmatech Co. Ltd. Formulation material: castor oil (Cremophor RH40), CAS No.: 61788-85-0, Lot No.: 29761847G0, purchased from Shanghai Xietai Chemical Co. Ltd.; β-cyclodextrin (SBE-β-CD), CAS No.: 128446-35-5, Lot No.: R1804474, purchased from Shanghai Shaoyuan Chemical Co. Ltd.; DMEM culture medium, CAS No.: 11995-065, Lot No.: 2025378, purchased from Gibco Co. Ltd.; PBS, Art. No.: SH30256.01, Lot No.: AB10141338, purchased from HyClone Co. Ltd.; Fetal bovine serum: CAS No.: 10099-141, Lot No.: 1966174C, purchased from Gibco Co. Ltd.; hygromycinB: CAS No.: 10687010, Lot No.: HY069-L12 purchased from Invitrogen.
Cell culture: The MC-38 tumor cells (NCI) were maintained in vitro as a monolayer culture in DMEM medium supplemented with 10% heat inactivated fetal bovine serum, 100 μg/mL hygromycinB at 37° C. in an atmosphere of 5% CO2 in air. The tumor cells were routinely subcultured three times weekly by trypsin-EDTA treatment. The cells growing to a confluency around 70%-80% were harvested and counted for tumor inoculation.
Tumor cell inoculation and group administration: The 100 uL cell suspension containing 1×10^6 MC-38-hPD-L1 tumor cells (cells suspended in base DMEM medium) was inoculated into right dorsal subcutaneous area in mice. 6 days after inoculation, 60 tumor-bearing mice with transplanted tumors ranging from 31.49 mm^3 to 110.26 mm^3 were selected, stratified randomization was used to group and start the administration on the day of grouping.
Preparation of test substances: Preparation of formulation: 800 mL of sterile water was added into the volumetric flask with magnetic stirring to have a vortex. 100 g of castor oil (Cremophor RH40) was added with a spoon slowly into the vortex and the solution was kept stirring. 200 g of β-cyclodextrin (SBE-β-CD) was added while the solution was kept stirring until the solution was clear, and the total volume was set to 1000 mL, which contained 10% (w/v) Cremophor RH40+20% (w/v) an aqueous solution of SBE-β-CD.
Preparation of Compound Suspension: 150.92 mg compound was weighed and 12.5 mL 10% (w/v) Cremophor RH40+20% (w/v) SBE-β-CD aqueous solution were added. The suspension solution with a concentration of 12.0 mg/mL was obtained by vortex for 2 minutes and ultrasound for 30 minutes. 5.0 mL of the compound suspension solution with concentration of 12.0 mg/mL was pipetted and 5.0 mL aqueous formulation solution was added. The suspension solution with a concentration of 6.0 mg/mL was obtained by vortex for 1 minute and sonicated by ultrasound for 5 minutes. 2.0 mL of the compound suspension solution with concentration of 6.0 mg/mL was pipetted and […] was added. The suspension solution with a concentration of 3.0 mg/mL was obtained by vortex for 1 minute and sonicated by ultrasound for 5 minutes. Compound suspension solution was prepared once a day.
Preparation of hPD-L1 antibody: 0.12 mL PD-L1 antibody Durvalumab (50 mg/mL) original solution was pipetted and divided into […] in 5 mL sterile centrifugal tube, which were packed with each containing 6.0 mg. They were stored in refrigerator at 4° C. Before administration, a raw solution containing 0.12 mL and 50 mg/mL was taken, and 2.88 mL 0.9% sodium chloride solution was added to make the solution thoroughly mixed. 3 mL Duvalumab solution with the concentration 2 mg/mL was obtained.
Procedure: The mice in the vehicle group were weighed and recorded in the electronic balance according to their numbers. […]

Structure (SMILES): Cc1c(/C=C/c2cc(CN[C@@](C)(CO)C(=O)O)ccc2C(F)(F)F)cccc1-c1ccccc1 [Compound]
- tolerability (adverse reactions) (C57BL/6-hPD-1 mice, PO, BID up to 120 mg/kg): well tolerated
- TGI (30 mg/kg, PO): 24.95%
- Tumor Volume (30 mg/kg, PO): 459.82 ± 58.24 mm^3
- TGI (60 mg/kg, PO): 29.06%
- Tumor Volume (60 mg/kg, PO): 439.04 ± 51.23 mm^3
- TGI (120 mg/kg, PO): 51.21%
- Tumor Volume (120 mg/kg, PO): 325.23 ± 38.59 mm^3
- growth of subcutaneous MC-38-hPD-L1 tumors in mice (MC-38-hPD-L1 model, C57BL/6-hPD-1 mice): significantly inhibit the growth
